Data on 10 molecules can be found in paper PMC3953731 (FEBS Open Bio, 2014).

Data set [1] deals with T1, Ima5p (Saccharomyces cerevisiae, UniProt P40884).
T1 sequence (P40884 1-581): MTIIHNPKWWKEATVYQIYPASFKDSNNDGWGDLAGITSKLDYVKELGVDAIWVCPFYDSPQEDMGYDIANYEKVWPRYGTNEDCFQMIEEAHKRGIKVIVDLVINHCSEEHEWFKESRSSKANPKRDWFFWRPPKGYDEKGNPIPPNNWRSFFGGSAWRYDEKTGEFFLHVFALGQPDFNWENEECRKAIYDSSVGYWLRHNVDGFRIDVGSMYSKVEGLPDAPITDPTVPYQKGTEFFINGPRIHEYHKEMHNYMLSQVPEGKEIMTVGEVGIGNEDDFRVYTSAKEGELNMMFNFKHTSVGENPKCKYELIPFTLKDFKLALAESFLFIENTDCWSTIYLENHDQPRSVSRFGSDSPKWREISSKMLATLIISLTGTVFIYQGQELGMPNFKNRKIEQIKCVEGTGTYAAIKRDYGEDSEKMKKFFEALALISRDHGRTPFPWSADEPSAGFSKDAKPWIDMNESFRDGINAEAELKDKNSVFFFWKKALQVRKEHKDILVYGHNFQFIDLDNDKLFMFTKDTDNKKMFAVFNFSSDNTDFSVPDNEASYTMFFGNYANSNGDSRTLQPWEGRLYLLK
The data set is described as follows: Substrate specificity of purified isomaltase. Conditions: 100 mM substrate (pNPG 5 mM), pH 7, 30 °C; for Specific activities: citrate–potassium phosphate buffer. The format is biochemical.

Data set [2] deals with Ima2p (Saccharomyces cerevisiae, UniProt Q08295). Description: Substrate specificity of purified isomaltase. The format is biochemical. Particulars: 100 mM substrate (pNPG 5 mM), pH 7, 30 °C; for Specific activities: citrate–potassium phosphate buffer.
In data set [3] the target is Ima1p (Saccharomyces cerevisiae, UniProt P53051). The data set is described as follows: Substrate specificity of purified isomaltase. The format is biochemical. Particulars: 100 mM substrate (pNPG 5 mM), pH 7, 30 °C; for Specific activities: citrate–potassium phosphate buffer.
Sequence of Ima1p (P53051 whole entry): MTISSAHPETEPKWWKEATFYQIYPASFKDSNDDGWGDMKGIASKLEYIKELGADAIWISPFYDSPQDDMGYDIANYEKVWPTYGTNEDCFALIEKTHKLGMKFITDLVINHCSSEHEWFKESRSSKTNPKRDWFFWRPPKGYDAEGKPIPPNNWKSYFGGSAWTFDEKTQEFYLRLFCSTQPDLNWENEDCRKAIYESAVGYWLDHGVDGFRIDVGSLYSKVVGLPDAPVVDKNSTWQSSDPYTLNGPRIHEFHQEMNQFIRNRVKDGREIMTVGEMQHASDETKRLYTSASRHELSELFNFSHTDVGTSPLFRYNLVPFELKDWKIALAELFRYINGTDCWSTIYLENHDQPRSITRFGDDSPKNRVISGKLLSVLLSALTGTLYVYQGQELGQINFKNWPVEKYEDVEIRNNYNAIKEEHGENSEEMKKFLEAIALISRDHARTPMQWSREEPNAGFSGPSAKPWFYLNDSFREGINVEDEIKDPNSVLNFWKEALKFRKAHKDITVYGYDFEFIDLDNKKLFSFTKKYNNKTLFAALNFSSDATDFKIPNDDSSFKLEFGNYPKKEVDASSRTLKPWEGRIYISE
The target in data set [4] is Ima3p (Saccharomyces cerevisiae, UniProt P0CW40). Description: Substrate specificity of purified isomaltase. In kind it is biochemical. Conditions: 100 mM substrate (pNPG 5 mM), pH 7, 30 °C; for Specific activities: citrate–potassium phosphate buffer.
Sequence of Ima3p (P0CW40 whole entry): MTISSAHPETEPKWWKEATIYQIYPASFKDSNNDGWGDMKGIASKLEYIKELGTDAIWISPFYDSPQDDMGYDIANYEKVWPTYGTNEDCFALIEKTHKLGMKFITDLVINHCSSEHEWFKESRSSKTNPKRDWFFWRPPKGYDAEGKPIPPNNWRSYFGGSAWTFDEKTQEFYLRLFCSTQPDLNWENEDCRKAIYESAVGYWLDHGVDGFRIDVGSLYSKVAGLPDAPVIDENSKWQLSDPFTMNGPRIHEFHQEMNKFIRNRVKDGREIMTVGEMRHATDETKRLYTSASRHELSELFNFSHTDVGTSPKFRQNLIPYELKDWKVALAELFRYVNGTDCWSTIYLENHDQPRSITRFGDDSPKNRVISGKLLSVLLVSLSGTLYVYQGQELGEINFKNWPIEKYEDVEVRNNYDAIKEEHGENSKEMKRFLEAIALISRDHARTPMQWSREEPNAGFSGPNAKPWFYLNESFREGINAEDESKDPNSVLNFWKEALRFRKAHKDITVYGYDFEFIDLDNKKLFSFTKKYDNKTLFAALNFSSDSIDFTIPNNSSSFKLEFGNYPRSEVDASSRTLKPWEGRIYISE
Data set [5] can be described thus: Melting temperature by differential scanning fluorimetry. In kind it is physicochemical, Saccharomyces cerevisiae. Conditions: for Tm: mean ± 2 SEM; for decrease of Tm on increase by one pH unit (pH 8): pH 7 to pH 8. (In general: Differential scanning fluorimetry follows unfolding on heating by fluorescence.)
Data set [6] is described as follows: Thermostability assay: time-dependent heat inactivation, half-life. Conditions: pNPG 5 mM, mean ± 2 SEM. The format is biochemical, Saccharomyces cerevisiae.

Values joined by “and” are separate entries in the source; they are usually repeats but may differ in a detail not shown here. Equal entries are not always repeated.

Take `OC[C@H]1O[C@H](O[C@@H]2[C@@H](O)[C@H](O)[C@@H](CO)O[C@@H]2O)[C@H](O)[C@@H](O)[C@@H]1O` [Kojibiose, O-α-D-Glucosyl-(1→2)-α-D-glucose]: the Specific activities came out at 2.5 µmol/min/mg in data set [1], 6.9 µmol/min/mg in data set [2], 7.7 µmol/min/mg in data set [3] and 0 µmol/min/mg in data set [4]. Also, the figures for the “relative activity, velocity on isomaltose set to 100” value (shortened to “relative activity, velocity”) in data set [1], in data set [2] and in data set [3] were 4%, 13% and 13%, respectively.
`OC[C@H]1O[C@H](O[C@H]2[C@H](O)[C@@H](O)[C@@H](O[C@H]3[C@H](O)[C@@H](O)C(O)O[C@@H]3CO)O[C@@H]2CO)[C@H](O)[C@@H](O)[C@@H]1O` (stereo partly drawn) [Maltotriose, O-α-D-Glucosyl-(1→4)-α-D-glucosyl-(1→4)-D-glucose]: the Specific activities in data set [1] was 3.4 µmol/min/mg; in data set [2] it was 3.4 µmol/min/mg; in data set [3] it was 3.5 µmol/min/mg; in data set [4] it was 0 µmol/min/mg. The “relative activity, velocity” value in data set [1] is reported as 5%; in data set [1] (listed as maltotriose), “approx. 5%”; in data set [2] it was 6%; in data set [2] (listed as maltotriose), “approx. 5%”; in data set [3], 6%; in data set [3] (listed as maltotriose), “approx. 5%”.
`OC[C@H]1O[C@H](O[C@@H]2[C@@H](CO)OC(O)(CO)[C@H]2O)[C@H](O)[C@@H](O)[C@@H]1O` (stereo partly drawn) [Maltulose, O-α-D-Glucosyl-(1→4)-D-fructose]: the Specific activities was found to be 0.36 µmol/min/mg in data set [1], 0.53 µmol/min/mg in data set [2], 0 µmol/min/mg in data set [3] and 0 µmol/min/mg in data set [4]. For the same molecule, the “relative activity, velocity” value in data set [1] and in data set [2] was 1% in each case.
On to `OC[C@H]1O[C@@](CO)(O[C@H]2O[C@H](CO)[C@@H](O)[C@H](O)[C@H]2O)[C@@H](O[C@H]2O[C@H](CO)[C@@H](O)[C@H](O)[C@H]2O)[C@@H]1O` [Melezitose, O-α-D-Glucosyl-(1→3)-β-D-fructosyl-(2→1)-D-glucose], for which the Specific activities in data set [1], in data set [2], in data set [3] and in data set [4] was 0 µmol/min/mg in each case.
In the case of `OC[C@H]1O[C@H](O[C@@H]2[C@@H](O)[C@@H](O)O[C@H](CO)[C@H]2O)[C@H](O)[C@@H](O)[C@@H]1O` [Nigerose, O-α-D-Glucosyl-(1→3)-α-D-glucose], the Specific activities in data set [1] was 4.2 µmol/min/mg; in data set [2], 6.8 µmol/min/mg; in data set [3], 6.5 µmol/min/mg; in data set [4], 2.5 µmol/min/mg. Also, the “relative activity, velocity” value in data set [1] worked out at 6%; in data set [2] it was 13%; in data set [3], 11%; in data set [4], 35%.
Regarding `OC[C@H]1O[C@H](O[C@H]2O[C@H](CO)[C@@H](O)[C@H](O)[C@H]2O)[C@H](O)[C@@H](O)[C@@H]1O` [Trehalose, O-α-D-Glucosyl-(1→1)-α-D-glucose], the Specific activities in data set [1], in data set [2], in data set [3] and in data set [4] was 0 µmol/min/mg throughout.
For `O=C(CO)[C@@H](O[C@H]1O[C@H](CO)[C@@H](O)[C@H](O)[C@H]1O)[C@H](O)[C@H](O)CO` [Turanose, O-α-D-Glucosyl-(1→3)-D-fructose], the Specific activities was 1.2 µmol/min/mg in data set [1], 3.5 µmol/min/mg in data set [2], 4.3 µmol/min/mg in data set [3] and 1.8 µmol/min/mg in data set [4]. In addition, the “relative activity, velocity” value turned out to be 2% in data set [1], 6% in data set [2], 7% in data set [3] and 25% in data set [4].

B1: Ima1p: isomaltase from S. cerevisiae encoded by IMA1/YGR287C, His-tagged, purified (protein, UniProt P53051 2-589, looked up)
Oligo-1,6-glucosidase IMA1: TISSAHPETEPKWWKEATFYQIYPASFKDSNDDGWGDMKGIASKLEYIKELGADAIWISPFYDSPQDDMGYDIANYEKVWPTYGTNEDCFALIEKTHKLGMKFITDLVINHCSSEHEWFKESRSSKTNPKRDWFFWRPPKGYDAEGKPIPPNNWKSYFGGSAWTFDEKTQEFYLRLFCSTQPDLNWENEDCRKAIYESAVGYWLDHGVDGFRIDVGSLYSKVVGLPDAPVVDKNSTWQSSDPYTLNGPRIHEFHQEMNQFIRNRVKDGREIMTVGEMQHASDETKRLYTSASRHELSELFNFSHTDVGTSPLFRYNLVPFELKDWKIALAELFRYINGTDCWSTIYLENHDQPRSITRFGDDSPKNRVISGKLLSVLLSALTGTLYVYQGQELGQINFKNWPVEKYEDVEIRNNYNAIKEEHGENSEEMKKFLEAIALISRDHARTPMQWSREEPNAGFSGPSAKPWFYLNDSFREGINVEDEIKDPNSVLNFWKEALKFRKAHKDITVYGYDFEFIDLDNKKLFSFTKKYNNKTLFAALNFSSDATDFKIPNDDSSFKLEFGNYPKKEVDASSRTLKPWEGRIYISE
modifications: His tag
Usually Tm stands for the temperature at which the thermal transition is half complete. Turning to B1, the Tm is 55.5 ± 0.6 °C in data set [5] (pH 6, DSF); 46.6 ± 0.7 °C in data set [5] (pH 7, DSF); 41.6 ± 0.2 °C in data set [5] (pH 8, DSF). Moreover, the “decrease of Tm on increase by one pH unit (pH 8)” value in data set [5] came out at 5 °C. The t1/2 in data set [6] (37 °C) was 26.1 ± 1.7 min; in data set [6] (40 °C), 17.6 ± 1.7 min.

B2: Ima2p: isomaltase from S. cerevisiae encoded by IMA2/YOL157C, His-tagged, purified (protein, UniProt Q08295 1-589, looked up)
Oligo-1,6-glucosidase IMA2: MTISSAHPETEPKWWKEATIYQIYPASFKDSNNDGWGDMKGIASKLEYIKELGADAIWISPFYDSPQDDMGYDIANYEKVWPTYGTNEDCFALIEKTHKLGMKFITDLVINHCSSEHEWFKESRSSKTNPKRDWFFWRPPKGYDAEGKPIPPNNWRSYFGGSAWTFDEKTQEFYLRLFCSTQPDLNWENEDCRKAIYESAVGYWLDHGVDGFRIDVGSLYSKVAGLPDAPVIDENSKWQPSDPFTMNGPRIHEFHQEMNKFIRNRVKDGREIMTVGEMQHATDETKRLYTSASRHELSELFNFSHTDVGTSPKFRQNLIPYELKDWKVALAELFRYVNGTDCWSTIYLENHDQPRSITRFGDDSPKNRVISGKLLSVLLVSLSGTLYVYQGQELGEINFKNWPIEKYEDVEVRNNYDAIKEEHGENSKEMKRFLEAIALISRDHARTPMQWSREEPNAGFSGPNAKPWFYLNESFREGINAEDESKDPNSVLNFWKEALRFRKAHKDITVYGYDFEFIDLDNKKLFSFTKKYDNKTLFAALNFSSDSIDFTIPNNSSSFKLEFGNYPRSEVDASSRTLKPWEGRIYISE
modifications: His tag
With B2, the Tm turned out to be 55.1 ± 0.2 °C in data set [5] (pH 6, DSF); 46.2 ± 0.8 °C in data set [5] (pH 7, DSF); 33.2 ± 0.6 °C in data set [5] (pH 8, DSF). Further, the “decrease of Tm on increase by one pH unit (pH 8)” value in data set [5] came out at 13 °C. The t1/2 in data set [6] (37 °C) amounted to 27.4 ± 1.6 min; in data set [6] (40 °C), 18.5 ± 1.6 min; in data set [6] (42 °C) it was 11.2 ± 0.7 min.

B3: Ima3p_L240P: Ima3p variant with L240P mutation (protein, UniProt P0CW40 1-589, looked up, variant L240P)
Oligo-1,6-glucosidase IMA3: MTISSAHPETEPKWWKEATIYQIYPASFKDSNNDGWGDMKGIASKLEYIKELGTDAIWISPFYDSPQDDMGYDIANYEKVWPTYGTNEDCFALIEKTHKLGMKFITDLVINHCSSEHEWFKESRSSKTNPKRDWFFWRPPKGYDAEGKPIPPNNWRSYFGGSAWTFDEKTQEFYLRLFCSTQPDLNWENEDCRKAIYESAVGYWLDHGVDGFRIDVGSLYSKVAGLPDAPVIDENSKWQPSDPFTMNGPRIHEFHQEMNKFIRNRVKDGREIMTVGEMRHATDETKRLYTSASRHELSELFNFSHTDVGTSPKFRQNLIPYELKDWKVALAELFRYVNGTDCWSTIYLENHDQPRSITRFGDDSPKNRVISGKLLSVLLVSLSGTLYVYQGQELGEINFKNWPIEKYEDVEVRNNYDAIKEEHGENSKEMKRFLEAIALISRDHARTPMQWSREEPNAGFSGPNAKPWFYLNESFREGINAEDESKDPNSVLNFWKEALRFRKAHKDITVYGYDFEFIDLDNKKLFSFTKKYDNKTLFAALNFSSDSIDFTIPNNSSSFKLEFGNYPRSEVDASSRTLKPWEGRIYISE
For B3, in data set [5] (pH 7), the “increase of Tm relative to Ima3p” value amounted to 1 °C. The Tm in data set [5] (pH 7, DSF) was 39.7 °C and 39.7 ± 0.4 °C. Further, the t1/2 is 26.5 ± 2.2 min in data set [6] (37 °C), 16.2 ± 1.8 min in data set [6] (40 °C) and 8.5 ± 1.3 min in data set [6] (42 °C).
